This test addresses T1, human Werner helicase (WRN-BV08, Uniprot Q14191, amino acids 517-1235 with L1074F point mutation) (Homo sapiens, UniProt Q14191, L1074F).
T1 construct: Uniprot Q14191, amino acids 517-1235 with L1074F point mutation; TEV-cleavable 8×His (C, cleaved yes); made in house; host or cells: Sf9 insect cells (baculovirus)
Briefly: WRN (BV08) ADP-Glo Assay. Format: biochemical. Conditions: 5 μM ATP, 0.1 nM DNA duplex, 15 min preincubation, 60 min at 25° C., pH 7.5, 1% DMSO. The method, boiled down: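 WRN 0.15 nM + cpd, 15 min 25 °C; add 5 μM ATP / 0.1 nM annealed DNA duplex; 60 min 25 °C; ADP-Glo stop, RLU. Buffer 20 mM Bicine pH 7.5, 1 mM MgCl2, 10 mM KCl, 1 mM TCEP. IC50, 4-parameter fit.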

Where [1] appears, read: 0.15 nM WRN, read-out: ADP-Glo_hWRN_IC50.

Like-named read-outs stand apart in the source and are kept apart here.

T1 sequence (Q14191 with tags, fused parts or gaps L1074F limits assumed): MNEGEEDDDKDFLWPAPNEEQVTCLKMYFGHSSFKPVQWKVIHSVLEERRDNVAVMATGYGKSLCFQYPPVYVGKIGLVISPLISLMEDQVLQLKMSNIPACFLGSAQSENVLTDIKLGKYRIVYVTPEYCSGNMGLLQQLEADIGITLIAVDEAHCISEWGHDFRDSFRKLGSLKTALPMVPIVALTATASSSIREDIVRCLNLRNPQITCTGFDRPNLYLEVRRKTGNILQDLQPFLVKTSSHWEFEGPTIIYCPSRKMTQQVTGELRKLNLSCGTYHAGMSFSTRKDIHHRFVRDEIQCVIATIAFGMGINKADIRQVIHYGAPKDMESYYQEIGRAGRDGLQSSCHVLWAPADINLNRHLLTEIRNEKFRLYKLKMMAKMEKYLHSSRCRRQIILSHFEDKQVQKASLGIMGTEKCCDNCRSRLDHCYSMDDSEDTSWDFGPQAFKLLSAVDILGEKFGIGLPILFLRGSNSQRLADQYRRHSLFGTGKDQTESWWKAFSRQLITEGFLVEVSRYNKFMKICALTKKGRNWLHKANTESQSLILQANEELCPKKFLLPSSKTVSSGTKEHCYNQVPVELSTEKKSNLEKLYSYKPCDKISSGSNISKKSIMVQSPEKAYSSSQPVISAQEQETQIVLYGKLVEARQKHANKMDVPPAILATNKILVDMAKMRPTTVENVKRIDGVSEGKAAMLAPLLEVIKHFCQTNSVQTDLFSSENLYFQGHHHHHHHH

Turning to `CC(C)(N)c1ccc(CN(C(=O)Cn2cc(-c3ccc(F)c(F)c3)cn2)C2C=CS(=O)(=O)C2)cc1` (centres unmarked) [I-795, N-{[4-(2-aminopropan-2-yl)phenyl]methyl}-2-[4-(3,4-difluorophenyl)-1H-pyrazol-1-yl]-N-(1,1-dioxo-2,3-dihydro-1lambda6-thiophen-3-yl)acetamide], under setting [1], the IC50 lay in the range of 0.5 to 5 µM.
On the same count and under the same terms, the figure for `C#CCCCC(=O)N1CCN(c2ccc(CN(C(=O)Cc3ccc(-n4cccc4)cc3)C3C=CS(=O)(=O)C3)cc2)CC1` (centres unmarked) [I-238, N-(1,1-dioxo-2,3-dihydro-1lambda6-thiophen-3-yl)-N-({4-[4-(hex-5-ynoyl)piperazin-1-yl]phenyl}methyl)-2-[4-(1H-pyrrol-1-yl)phenyl]acetamide] is 0.5 to 5 µM; for `COc1cc(CN(C(=O)C(OCCS(C)(=O)=O)c2ccc(-c3ccc(F)c(F)c3)cc2F)[C@@H]2C=CS(=O)(=O)C2)ccn1` (stereo partly drawn) [I-707, N-[(3R)-1,1-dioxo-2,3-dihydro-1lambda6-thiophen-3-yl]-2-(2-methanesulfonylethoxy)-N-[(2-methoxypyridin-4-yl)methyl]-2-{3,3′,4′-trifluoro-[1,1′-biphenyl]-4-yl}acetamide] it is 0.5 to 5 µM.
On the same count and under the same terms, to `CC(C)(O)c1cc(CN(C(=O)Cn2cc(-c3cc(F)c(F)c(F)c3)c(F)n2)[C@@H]2C=CS(=O)(=O)C2)ccn1` [I-832, N-[(3R)-1,1-dioxo-2,3-dihydro-1lambda6-thiophen-3-yl]-2-[3-fluoro-4-(3,4,5-trifluorophenyl)-1H-pyrazol-1-yl]-N-{[2-(2-hydroxypropan-2-yl)pyridin-4-yl]methyl}acetamide] belongs less than 0.5 µM; to `O=C(Cn1cc(-c2cc(F)c(F)c(F)c2)cn1)N(Cc1ccnc(Oc2ccncc2)c1)C1C=CS(=O)(=O)C1` (centres unmarked) [I-772, N-(1,1-dioxo-2,3-dihydro-1lambda6-thiophen-3-yl)-N-{[2-(pyridin-4-yloxy)pyridin-4-yl]methyl}-2-[4-(3,4,5-trifluorophenyl)-1H-pyrazol-1-yl]acetamide], less than 0.5 µM; to `CN(C)C(=O)C(C(=O)N(Cc1ccnc(C(C)(C)O)c1)C1C=CS(=O)(=O)C1)c1ccc(-c2ccc(F)c(F)c2)cc1F` (centres unmarked) [I-24, N′-(1,1-dioxo-2,3-dihydro-1lambda6-thiophen-3-yl)-N′-{[2-(2-hydroxypropan-2-yl)pyridin-4-yl]methyl}-N,N-dimethyl-2-{3,3′,4′-trifluoro-[1,1′-biphenyl]-4-yl}propanediamide], less than 0.5 µM.
Take `COc1cc(CN(C(=O)Cc2ccc(S(F)(F)(F)(F)F)cc2)[C@@H]2C=CS(=O)(=O)C2)ccn1` [I-17, N-[(3R)-1,1-dioxo-2,3-dihydro-1lambda6-thiophen-3-yl]-N-[(2-methoxypyridin-4-yl)methyl]-2-[4-(pentafluoro-lambda6-sulfanyl)phenyl]acetamide]: under setting [1], the IC50 is less than 0.5 µM.
For `COc1cc(CN(C(=O)C(OCCC#N)c2ccc(-c3ccc(F)c(F)c3)cc2F)[C@@H]2C=CS(=O)(=O)C2)ccn1` (single isomer, unassigned) [I-736, (2R*)-2-(2-cyanoethoxy)-N-[(3R)-1,1-dioxo-2,3-dihydro-1lambda6-thiophen-3-yl]-N-[(2-methoxypyridin-4-yl)methyl]-2-{3,3′,4′-trifluoro-[1,1′-biphenyl]-4-yl}acetamide], under setting [1], the IC50 is more than 50 µM.
In the case of `CCOC(C(=O)N(Cc1ccnc(OC)c1)C1C=CS(=O)(=O)C1)c1ccc(-c2ccc(F)cc2)cc1` (centres unmarked) [I-113, N-(1,1-dioxo-2,3-dihydro-1lambda6-thiophen-3-yl)-2-ethoxy-2-{4′-fluoro-[1,1′-biphenyl]-4-yl}-N-[(2-methoxypyridin-4-yl)methyl]acetamide], under setting [1], the IC50 was 0.5 to 5 µM.
Regarding `COc1cc(CN(C(=O)Cc2ccc([C@@H]3C[C@H]3C(F)(F)F)cc2)[C@@H]2C=CS(=O)(=O)C2)ccn1` (mixture of isomers) [I-784, N-[(3R)-1,1-dioxo-2,3-dihydro-1lambda6-thiophen-3-yl]-N-[(2-methoxypyridin-4-yl)methyl]-2-{4-[(1RS,2RS)-2-(trifluoromethyl)cyclopropyl]phenyl}acetamide], under setting [1], the IC50 was in the range of 5 to 10 µM.
For the molecule `COc1cc(CN(C(=O)Cc2cnn(-c3ccc(Cl)cc3)c2)C2C=CS(=O)(=O)C2)ccn1` (centres unmarked) [I-379, 2-[1-(4-chlorophenyl)-1H-pyrazol-4-yl]-N-(1,1-dioxo-2,3-dihydro-1lambda6-thiophen-3-yl)-N-[(2-methoxypyridin-4-yl)methyl]acetamide], under setting [1], the IC50 is more than 50 µM.
Still for that read-out and setting: to `CC(C)(O)c1cc(CN(C(=O)Cc2ccc(C(F)(F)C(F)(F)F)cc2)C2C=CS(=O)(=O)C2)ccn1` (single isomer, unassigned) [I-673] belongs less than 0.5 µM; to `O=C(Cn1cc(-c2ccc(F)cc2)cn1)N(Cc1ccnc(OC(F)F)c1)C1C=CS(=O)(=O)C1` (centres unmarked) [I-662, N-{[2-(difluoromethoxy)pyridin-4-yl]methyl}-N-(1,1-dioxo-2,3-dihydro-1lambda6-thiophen-3-yl)-2-[4-(4-fluorophenyl)-1H-pyrazol-1-yl]acetamide], less than 0.5 µM; to `O=C(Cc1ncc(-n2cccc2)s1)N(Cc1ccncc1)C1C=CS(=O)(=O)C1` (centres unmarked) [I-279, N-(1,1-dioxo-2,3-dihydro-1lambda6-thiophen-3-yl)-N-[(pyridin-4-yl)methyl]-2-[5-(1H-pyrrol-1-yl)-1,3-thiazol-2-yl]acetamide], 5 to 10 µM.
For the setting “ADP-Glo_hWRN_IC50, 0.15 nM WRN”, `O=C(c1cc(-c2ccc(F)cc2)ns1)N(Cc1ccncc1)C1C=CS(=O)(=O)C1` (centres unmarked) [I-615, N-(1,1-dioxo-2,3-dihydro-1lambda6-thiophen-3-yl)-3-(4-fluorophenyl)-N-[(pyridin-4-yl)methyl]-1,2-thiazole-5-carboxamide] showed an IC50 of more than 50 µM.
In the case of `COc1cc(CN(C(=O)C(c2ccc(-c3ccc(F)c(F)c3)cc2F)n2cccn2)[C@@H]2C=CS(=O)(=O)C2)ccn1` (single isomer, unassigned) [I-671, (2R*)-N-[(3R)-1,1-dioxo-2,3-dihydro-1lambda6-thiophen-3-yl]-N-[(2-methoxypyridin-4-yl)methyl]-2-(1H-pyrazol-1-yl)-2-{3,3′,4′-trifluoro-[1,1′-biphenyl]-4-yl}acetamide], under setting [1], the IC50 was less than 0.5 µM.
In the case of `CC(C(=O)N(Cc1ccnc(C(C)(C)O)c1)C1C=CS(=O)(=O)C1)n1cc(-c2ccc(C(F)(F)F)cc2)cn1` (single isomer, unassigned) [I-775, (2R*)-N-[(3R**)-1,1-dioxo-2,3-dihydro-1lambda6-thiophen-3-yl]-N-{[2-(2-hydroxypropan-2-yl)pyridin-4-yl]methyl}-2-{4-[4-(trifluoromethyl)phenyl]-1H-pyrazol-1-yl}propanamide], the IC50 under setting [1] was in the range of 0.5 to 5 µM.
Same read-out and setting: the figure for `COc1nccc(CN(C(=O)Cc2ccc(-n3cccc3C)cc2F)C2C=CS(=O)(=O)C2)n1` (centres unmarked) [I-112, N-(1,1-dioxo-2,3-dihydro-1lambda6-thiophen-3-yl)-2-[2-fluoro-4-(2-methyl-1H-pyrrol-1-yl)phenyl]-N-[(2-methoxypyrimidin-4-yl)methyl]acetamide] is 0.5 to 5 µM.
`O=C(Cc1ccc(-n2cccc2CCO)cc1)N(Cc1ccccc1)C1C=CS(=O)(=O)C1` (centres unmarked) [I-383, N-benzyl-N-(1,1-dioxo-2,3-dihydro-1lambda6-thiophen-3-yl)-2-{4-[2-(2-hydroxyethyl)-1H-pyrrol-1-yl]phenyl}acetamide]: the IC50 under setting [1] is more than 50 µM.
Turning to `O=C(Cc1ccc(C(F)(F)F)cn1)N(Cc1ccncc1)C1C=CS(=O)(=O)C1` (centres unmarked) [I-389, N-(1,1-dioxo-2,3-dihydro-1lambda6-thiophen-3-yl)-N-[(pyridin-4-yl)methyl]-2-[5-(trifluoromethyl)pyridin-2-yl]acetamide], the IC50 under setting [1] is more than 50 µM.

(Values after patent US20260297070A1, “CYCLIC [COMPOUND LEFT OUT] WRN INHIBITORS” (Nimbus Wadjet, Inc., priority 2023, published 2026).)
